Measured values from the supplement of paper PMC10307832.

Columns and labels:
Assay in all cases: relative viability (nuclei count vs DMSO), 5 days (fraction); higher = more cells survive
Shikonin + Crizotinib = compound: CC(C)=CC[C@@H](O)C1=CC(=O)c2c(O)ccc(O)c2C1=O [Shikonin] + C[C@@H](Oc1cc(-c2cnn(C3CCNCC3)c2)cnc1N)c1c(Cl)ccc(F)c1Cl [Crizotinib] (partner 1 µM)
Outline: (§1)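 Medians of duplicate plates are given as relative viability. That measure is the nuclei count in treated wells divided by the count in vehicle wells. Counts were taken on 4× images of lung cancer cell lines in 1536-well plates, 5 days after pin-tool dosing the day after seeding with one drug alone or a fixed anchor-drug dose plus five library-drug doses (not always all listed) in √10 steps.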

Shikonin + Decitabine = compound: CC(C)=CC[C@@H](O)C1=CC(=O)c2c(O)ccc(O)c2C1=O [Shikonin] + Nc1ncn([C@H]2C[C@H](O)[C@@H](CO)O2)c(=O)n1 [Decitabine] (partner 2 µM)
Outline: as §1

[1] = compound: CC(C)N(CCCNC(=O)Nc1ccc(C(C)(C)C)cc1)C[C@H]1O[C@@H](n2ccc3c(N)ncnc32)[C@H](O)[C@@H]1O + Cc1cc(Nc2cc(N3CCN(C)CC3)nc(Sc3ccc(NC(=O)C4CC4)cc3)n2)n[nH]1 [Tozasertib] (partner 0.1 µM)
Outline: as §1

[2] = compound: CC(C)N(CCCNC(=O)Nc1ccc(C(C)(C)C)cc1)C[C@H]1O[C@@H](n2ccc3c(N)ncnc32)[C@H](O)[C@@H]1O + O=C(CCCCCCC(=O)Nc1ccccc1)NO [Vorinostat] (partner 1 µM)
Outline: as §1

Row | Cell Line | relative viability (Shikonin + Crizotinib; first compound 0.01 µM) | relative viability (Shikonin + Crizotinib; first compound 0.1 µM) | relative viability (Shikonin + Crizotinib; first compound 0.3162 µM) | relative viability (Shikonin + Crizotinib; first compound 1 µM) | relative viability (Shikonin + Decitabine; first compound 0.01 µM) | relative viability (Shikonin + Decitabine; first compound 0.1 µM) | relative viability (Shikonin + Decitabine; first compound 0.3162 µM) | relative viability (Shikonin + Decitabine; first compound 1 µM) | relative viability ([1]; first compound 0.08 µM) | relative viability ([1]; first compound 0.253 µM) | relative viability ([1]; first compound 0.8 µM) | relative viability ([1]; first compound 2.53 µM) | relative viability ([1]; first compound 8 µM) | relative viability ([2]; first compound 0.08 µM) | relative viability ([2]; first compound 0.253 µM) | relative viability ([2]; first compound 0.8 µM) | relative viability ([2]; first compound 2.53 µM) | relative viability ([2]; first compound 8 µM)
1 | SK-MES-1 | 1.11 | 1.05 | 1.08 | 1.11 | 0.323 | 0.417 | 0.371 | 0.426 | 0.855 | 0.959 | 0.962 | 0.92 | 0.872 | 1.04 | 1.13 | 0.867 | 1.1 | 1.06
2 | NCI-H2170 | 1.5 | 1.07 | 1.29 | 1.25 | 0.481 | 0.449 | 0.496 | 0.503 | 0.723 | 0.72 | 0.645 | 0.709 | 0.74 | 0.811 | 0.681 | 0.807 | 0.83 | 0.688
3 | NCI-H2087 | 1.07 | 0.781 | 0.923 | 0.824 | 0.283 | 0.263 | 0.278 | 0.294 | 0.243 | 0.252 | 0.243 | 0.259 | 0.207 | 0.681 | 0.732 | 0.929 | 0.668 | 0.512
4 | NCI-H1993 | – | 0.922 | 0.866 | 0.93 | 0.668 | 0.592 | 0.632 | 0.555 | 0.564 | – | – | 0.624 | 0.591 | 0.663 | – | 0.661 | 0.748 | 0.818
5 | PC-14 | 0.984 | 1.02 | 0.841 | 1.03 | 0.216 | 0.278 | 0.413 | 0.161 | 0.529 | 0.598 | 0.598 | 0.6 | 0.551 | 0.71 | 0.722 | 0.624 | 0.702 | 0.561
6 | NCI-H460 | 1.37 | 1.38 | 1.26 | 0.884 | 0.446 | 0.685 | 0.504 | 0.516 | 0.402 | 0.435 | 0.346 | 0.488 | 0.453 | 0.719 | 0.727 | 0.746 | 0.701 | 0.734
7 | LOU-NH91 | 0.737 | 0.686 | 0.775 | 0.737 | 0.787 | 0.879 | 0.856 | 0.816 | 0.635 | 0.662 | 0.314 | 0.682 | 0.607 | 0.9 | 0.832 | – | 0.943 | 0.869
8 | NCI-H322M | 0.866 | 0.997 | 0.855 | 0.882 | 0.736 | 0.723 | 0.714 | 0.664 | 0.484 | 0.434 | 0.493 | 0.499 | 0.499 | 0.891 | 0.899 | 0.805 | 0.842 | 0.912
9 | NCI-H596 | 1.1 | 0.884 | 0.96 | 0.985 | 1.08 | 1.03 | 0.981 | 1.25 | 0.905 | – | 0.744 | 0.97 | 0.897 | 0.601 | 0.427 | 0.39 | 0.674 | 0.714
10 | NCI-H727 | 1.02 | 0.991 | 0.727 | 0.589 | 0.893 | 1.02 | 0.927 | 0.883 | 0.667 | 0.656 | 0.697 | 0.621 | 0.642 | 1.12 | 1.23 | 1.16 | 1.04 | 1.17
11 | NCI-H838 | 0.898 | 0.967 | 0.898 | 0.99 | 0.476 | 0.413 | 0.442 | 0.468 | 0.258 | 0.264 | 0.341 | 0.275 | 0.233 | 0.683 | 0.744 | 0.784 | 0.755 | 0.672
12 | NCI-H1734 | 0.665 | 0.769 | 0.717 | 0.632 | 0.475 | 0.566 | 0.571 | 0.474 | 0.265 | 0.249 | 0.277 | 0.246 | 0.258 | 0.773 | 0.611 | 0.677 | 0.783 | 0.756
13 | LXF-289 | 0.856 | 0.825 | 0.773 | 0.844 | 0.356 | 0.342 | 0.453 | 0.378 | 0.167 | 0.199 | 0.131 | 0.176 | 0.174 | 0.748 | 0.762 | 0.726 | 0.752 | 0.701
14 | H3255 | 0.945 | 1 | 0.958 | 0.915 | 0.606 | 0.658 | 0.663 | 0.503 | 0.735 | 0.473 | 0.466 | 0.457 | 0.609 | 0.743 | 0.807 | 0.717 | 0.788 | 0.477
15 | 201T | 1.01 | 1.08 | 1.04 | 1.08 | 0.847 | 0.919 | 0.879 | 0.867 | 0.871 | 0.896 | 0.974 | 0.898 | 0.902 | 0.984 | 0.975 | – | 0.911 | 0.931
16 | HOP-62 | 0.61 | 0.95 | 0.32 | 1.02 | 0.24 | 0.222 | 0.205 | 0.212 | 0.369 | 0.375 | 0.335 | 0.309 | 0.367 | 0.711 | 0.555 | 0.445 | 0.58 | 0.458
17 | NCI-H647 | 1.13 | 1.29 | 0.931 | 1.01 | 0.364 | 0.504 | 0.346 | 0.328 | 0.261 | 0.318 | – | 0.416 | 0.267 | 0.415 | 0.549 | 0.472 | 0.598 | 0.518
18 | NCI-H1755 | 0.972 | 1.09 | 0.88 | 0.887 | 0.735 | 0.768 | 0.761 | 0.712 | 0.637 | 0.564 | 0.464 | 0.573 | 0.54 | 0.769 | 0.74 | 0.666 | 0.756 | 0.723
19 | NCI-H2085 | 0.874 | 0.857 | 0.881 | 0.585 | 0.528 | 0.515 | 0.57 | 0.532 | 0.746 | 0.78 | 0.797 | 0.854 | 0.716 | 0.769 | 0.667 | 0.813 | 0.887 | 0.744
20 | NCI-H2023 | 0.767 | 0.583 | 0.667 | 0.604 | 0.201 | 0.251 | 0.236 | 0.225 | 0.437 | 0.38 | 0.345 | 0.375 | 0.338 | 0.605 | 0.608 | 0.576 | 0.584 | 0.45
